Data as given in patent US11040038B2, “Methods for treating diseases associated with abnormal ACVR1 expression and ACVR1 inhibitors for use in the same” (Sumitomo Dainippon Pharma Oncology, Inc., priority 2018, dated 2021).
Where a chain is given by its changes, count along the chain named. Read-outs that look alike come from different tables or passages of the source.

Experiments:
ACVR1 R258G = molecular target: T1, ACVR1 R258G (Homo sapiens, UniProt Q04771, R258G); experiment: ACVR1 kinase assay, casein substrate, 33P-ATP, filter binding; type: biochemical; details: 10 μM ATP
T1 sequence (Q04771 21-509 R258G): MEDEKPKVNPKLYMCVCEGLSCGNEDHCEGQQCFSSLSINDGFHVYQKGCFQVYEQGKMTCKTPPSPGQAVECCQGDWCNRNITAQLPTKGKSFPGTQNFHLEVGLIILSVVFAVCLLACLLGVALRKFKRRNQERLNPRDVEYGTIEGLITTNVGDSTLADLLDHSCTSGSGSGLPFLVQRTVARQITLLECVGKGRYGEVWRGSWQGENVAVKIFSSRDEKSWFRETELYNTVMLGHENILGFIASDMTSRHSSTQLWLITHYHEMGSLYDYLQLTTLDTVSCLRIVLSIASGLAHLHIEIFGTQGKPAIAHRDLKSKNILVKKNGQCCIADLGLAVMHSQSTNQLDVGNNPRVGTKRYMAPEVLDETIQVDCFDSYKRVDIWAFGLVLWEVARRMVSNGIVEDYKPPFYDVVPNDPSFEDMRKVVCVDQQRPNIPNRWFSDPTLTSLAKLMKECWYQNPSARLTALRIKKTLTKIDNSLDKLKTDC
Experimental: (§1) In brief, casein-based substrates were prepared. The respective ACVR1 kinase was added to the substrate mixture and hot/cold 33P-ATP (10 μM) was added to initiate the reaction. The activity was then measured with a filter binding method.
(§2) The IC50 values against the kinases are listed below in Table 3.

ACVR1 R206H = molecular target: T2, ACVR1 R206H (Homo sapiens, UniProt Q04771, R206H); experiment: as above; type: biochemical; details: 10 μM ATP
T2 sequence (Q04771 21-509 R206H): T1 sequence (Q04771 21-509 R258G) with R186H, G238R
Experimental: as §1, §2

ACVR1 Wild Type = molecular target: T3, ACVR1 Wild Type (Homo sapiens, UniProt Q04771); experiment: as above; type: biochemical; details: 10 μM ATP
T3 sequence (Q04771 21-509): T1 sequence (Q04771 21-509 R258G) with G238R
Experimental: as §1, §2

[1] = Pharmacokinetic and tissue distribution study; type: in vivo, CD-1 male mice; details: mice, 20 mg/kg PO; for Cmax / Tmax / half-life / AUC(0-t) / AUC: male, CD-1, mouse; for AUC: read-out: AUC0-?
Experimental: An additional pharmacokinetic and tissue distribution study was conducted to comprehensively evaluate Compound 2 exposure in multiple mouse organs. CD-1 male mice were dosed 20 mg/kg, PO with Compound 2 formulated in 20% solutol and 80% saline. Plasma and organs were collected at nine (9) time points and the drug concentrations were determined by LC-MS/MS. […] The results confirmed exposure in clinically relevant target organs, including brain and liver (Table 7).

COc1cc(Nc2nccc(Nc3cccnc3-c3ccccn3)n2)ccc1N1CCN(C)CC1 [Compound 2, N^4-(2,2′-bipyridin-3-yl)-N^2-(3-methoxy-4-(4-methylpiperazin-1-yl)phenyl)pyrimidine-2,4-diamine]
IC50 (ACVR1 R258G): 51.6 nM
IC50 (ACVR1 R206H): 3.8 nM
IC50 (ACVR1 Wild Type): 4.5 nM
Cmax ([1]; adrenals): 13800 ng/g
Tmax ([1]; adrenals): 1.3 h
half-life ([1]; adrenals): 3.3 h
Cmax ([1]; bladder): 2220 ng/g
Tmax ([1]; bladder): 3 h
half-life ([1]; bladder): 3.1 h
AUC(0-t) ([1]; bone marrow): 1940 ng·h/mL
Cmax ([1]; bone marrow): 240 ng/mL
Tmax ([1]; bone marrow): 4.5 h
half-life ([1]; bone marrow): 4.6 h
AUC ([1]; bone marrow): 2020 ng·h/mL
Cmax ([1]; brain): 1690 ng/g
Tmax ([1]; brain): 3.2 h
half-life ([1]; brain): 2.6 h
Cmax ([1]; intestine): 20200 ng/g
Tmax ([1]; intestine): 1.8 h
half-life ([1]; intestine): 3.6 h
Cmax ([1]; kidney): 31100 ng/g
Tmax ([1]; kidney): 2.3 h
half-life ([1]; kidney): 2.5 h
Cmax ([1]; liver): 79900 ng/g
Tmax ([1]; liver): 0.8 h
half-life ([1]; liver): 3.3 h
Cmax ([1]; lung): 18300 ng/g
Tmax ([1]; lung): 1.3 h
half-life ([1]; lung): 2.8 h
Cmax ([1]; pancreas): 10600 ng/g
Tmax ([1]; pancreas): 3.2 h
half-life ([1]; pancreas): 2.6 h
AUC(0-t) ([1]; plasma): 2340 ng·h/mL
Cmax ([1]; plasma): 378 ng/mL
Tmax ([1]; plasma): 1 h
half-life ([1]; plasma): 3.8 h
AUC ([1]; plasma): 2380 ng·h/mL
Cmax ([1]; spleen): 36200 ng/g
Tmax ([1]; spleen): 6 h
half-life ([1]; spleen): 13.3 h
Cmax ([1]; stomach): 17300 ng/g
Tmax ([1]; stomach): 0.5 h
half-life ([1]; stomach): 3.6 h
AUC0-? ([1]; adrenals): 76421 ng*h/G
AUCLast ([1]; adrenals): 75782 ng*h/G
AUC0-? ([1]; bladder): 17546 ng*h/G
AUCLast ([1]; bladder): 17386 ng*h/G
AUC0-? ([1]; brain): 7756 ng*h/G
AUCLast ([1]; brain): 7729 ng*h/G
AUC0-? ([1]; intestine): 52421 ng*h/G
AUCLast ([1]; intestine): 51891 ng*h/G
AUC0-? ([1]; kidney): 152790 ng*h/G
AUCLast ([1]; kidney): 152492 ng*h/G
AUC0-? ([1]; liver): 286210 ng*h/G
AUCLast ([1]; liver): 284827 ng*h/G
AUC0-? ([1]; lung): 76908 ng*h/G
AUCLast ([1]; lung): 76622 ng*h/G
AUC0-? ([1]; pancreas): 53297 ng*h/G
AUCLast ([1]; pancreas): 53163 ng*h/G
AUC0-? ([1]; spleen): 627382 ng*h/G
AUCLast ([1]; spleen): 406119 ng*h/G
AUC0-? ([1]; stomach): 32717 ng*h/G
AUCLast ([1]; stomach): 32467 ng*h/G
